Key:
[1] = Phase I metabolic stability in human liver microsomes (+/- NADPH, LC/MS); type: in vitro ADME; details: for % Compound Remaining (mean), NADPH: with NADPH; for % Compound Remaining (mean), -NADPH: without NADPH
Method: The fluorinated compounds were evaluated under the more metabolically demanding conditions of a Phase-1-type microsomal analysis. […] For this initial comparison, the 7-fluoro-dithiopomaldiomide 30 was selected owing to its combination of favorable biological parameters and general ease of synthesis. The reactions on each sample were initiated by addition of human liver microsomes in the presence or absence of an NADPH regenerating system, and compound disappearance was monitored via LC/MS (FIG. 14, Table 10).

[2] = tested on: LPS-induced nitrite in RAW 264.7 cells; test: LPS-induced nitrite production in RAW 264.7 cells (Griess reagent / fluorometric kit); type: cell-based, mouse; details: for nitrite level, % of vehicle control: percentage of vehicle control value (control = 100%), mean ± S.E.M., n = 3; for Nitrite, % Change versus Control (± s.e.m.): 10 uM
Method: Nitrite ion detection in drug treated […] cell culture media: To measure the levels of nitrite ion NO2—) the Griess Reagent System (Promega, Madison, WI, Cat #G2930) was utilized. The protocol followed was that recommended by the manufacturer. In brief a NO2— ion standard curve was prepared in culture media of the same composition to that used for the cell culture study. The concentration range of the standard curve was from 1.5 µM to 100 µM. Equal volumes (50 μL) of standards and unknown samples were added to clear 96 well plates in duplicate. Then 50 μL of sulfanilamide solution was added to each well and the plate was covered and incubated in the dark for 10 min. After the incubation period 50 μL of N-1-napthylethylenediamine dihydrochloride solution was added to each well and the plate was incubated in dark for a further 10 min. After this incubation, the plate was read at 550 nm on a SPECTRAmax PLUS plate reader and the absorbances were used to generate a NO2— standard curve and the NO2— ion levels of the unknown samples are determined using SoftMax Pro V5, Molecular Devices.
Most neurons are highly vulnerable to RNS and ROS. Nitric oxide (NO) is one of RNSs, which is very short lived and cannot be readily measured. However, nitrite is a stable end product of nitric oxide metabolism. Therefore, nitrite acts as a surrogate measure of NO. The Griess Reagent System (Promega Corporation, Madison, WI) can be applied to measure nitrite levels in culture media following the manufacturer's protocol, and this system was used in the present study as it is a more sensitive assay compared to quantifying actions on TNF-α by ELISA assay. […] This challenge induces high level of TNF-α protein accompanied by a robust generation of nitrite.
(§1) Cells were propagated as described by ATCC guidelines.

RAW 264.7 cells = test: Cell viability of drug treated RAW 264.7 cells (CellTiter 96 AQueous One, MTS); details: for Cell Viability % Δ: percentage of vehicle control value, mean ± S.E.M., n = 3; for Viability, % Change versus Control (± s.e.m.): 10 uM
TNF-α = test: LPS-induced TNF-α production in RAW 264.7 cells (ELISA); type: cell-based, mouse; details: for TNF-α % Δ: percentage of vehicle control value (control = 100%), mean ± S.E.M., n = 3; for TNF-a, % Change versus Control (± s.e.m.): 10 uM
Method: Enzyme-linked immunosorbent assay for TNF-α protein: Media TNF-α levels were measured by use of the Biolegend ELISA MAX Set Delux ELISA (#430904). The protocol used was that recommended by the manufacturer. In brief, a day prior to performing the assay, a 96 well plate was coated with a capture antibody directed against TNF-α. The following day the assay plate was washed and blocked with the kit blocking agent for 1 h while being mixed on a plate shaker at 200 rpm (all incubations were mixed at 200 rpm unless stated otherwise). A TNF-α protein standard curve was prepared in the assay diluent following the kit instructions and unknown media samples were likewise diluted in the same assay diluent. After blocking, the plate was washed and then both the standards and unknown media samples were added to the plate in duplicate. The standards and unknown samples were incubated for 2 h. After the incubation, the plate was washed and then the biotin labeled detection antibody was added to each well and incubated for a further 1 h. After this incubation, the avidin-HRP conjugate complex was added to each well and incubated for 30 min. The plate was washed and the chromogenic substrate 3,3′,5,5′-tetramethylbenzidine solution was added to each well. At this point the plate was covered and incubated in the dark for 15 min, with no mixing. After 15 min the chromogenic reaction was stopped by the addition of 2 N H2SO4 and the absorbance was read at 450 nm and for background subtractions at 570 nm, on a SPECTRAmax PLUS plate reader. The absorbances were used to generate a TNF-α a protein standard curve and the protein levels in the unknown samples were determined using SoftMax Pro V5, Molecular Devices.
as §1

[3] = 1 μM, LPS-challenged RAW 264.7 cells
[4] = 10 μM, LPS-challenged RAW 264.7 cells
[5] = 30 μM, LPS-challenged RAW 264.7 cells
[6] = LPS-activated RAW 264.7 cells (Table 9)

## Nc1cccc2c1C(=S)N(C1CCC(=S)NC1=O)C2=O (stereo not shown) [4′, 3,6′-dithiopomalidomide, reference compound]
[1]; after 1 hr incubation, human liver microsomes
  material consumed: more than half
[1]; with and without NADPH
  stability in human liver microsomes (in words): moderate level of instability
[2]; six-compound pomalidomide grouping, RAW cell assay, FIGS. 12-13
  nitrite levels (in words): reduced nitrite levels significantly

## CC1(C)[C@H]2CC[C@@H](CN3C(=O)c4c(F)c(F)c(F)c(F)c4C3=O)[C@@H]1C2 [Compound 13, 2-(((1S,2R,5S)-6,6-dimethylbicyclo[3.1.1]heptan-2-yl)methyl)-4,5,6,7-tetrafluoroisoindoline-1,3-dione]
RAW 264.7 cells; 1 μM, RAW 264.7 cells
  Cell Viability % Δ: 78 ± 3%
TNF-α; [3]
  TNF-α % Δ: 62 ± 3%
[2]; [3]
  nitrite level, % of vehicle control: 31 ± 3%
[2]; 1 μM, tetrafluoro vs corresponding difluoro or stereoisomer
  nitrite inhibitory activity (comparison in words): more potent nitrite inhibitory activity

## C[C@H]1[C@H](N2C(=O)c3c(F)ccc(F)c3C2=O)C[C@@H]2C[C@H]1C2(C)C [Compound 17, 4,7-Difluoro-2-((1R,2R,3R,5S)-2,6,6-trimethylbicyclo[3.1.1]heptan-3-yl) isoindoline-1,3-dione]
RAW 264.7 cells; 1 μM, RAW 264.7 cells
  Cell Viability % Δ: 100 ± 4%
RAW 264.7 cells; 10 μM, RAW 264.7 cells
  Cell Viability % Δ: 81 ± 5%
TNF-α; [3]
  TNF-α % Δ: 95 ± 3%
TNF-α; [4]
  TNF-α % Δ: 77 ± 3%
[2]; [3]
  nitrite level, % of vehicle control: 90 ± 5%
[2]; [4]
  nitrite level, % of vehicle control: 54 ± 3%

## CC1(C)[C@H]2CC[C@@H](CN3C(=O)c4c(F)ccc(F)c4C3=O)[C@@H]1C2 [Compound 19, 2-(((1S,2R,5S)-6,6-dimethylbicyclo[3.1.1]heptan-2-yl)methyl)-4,7-difluoroisoindoline-1,3-dione]
RAW 264.7 cells; 1 μM, RAW 264.7 cells
  Cell Viability % Δ: 98 ± 2%
RAW 264.7 cells; 10 μM, RAW 264.7 cells
  Cell Viability % Δ: 93 ± 4%
RAW 264.7 cells; 30 μM, RAW 264.7 cells
  Cell Viability % Δ: 67 ± 3%
TNF-α; [3]
  TNF-α % Δ: 102 ± 2%
TNF-α; [4]
  TNF-α % Δ: 82 ± 2%
[2]; [3]
  nitrite level, % of vehicle control: 79 ± 2%
[2]; [4]
  nitrite level, % of vehicle control: 63 ± 3%
[2]; [5]
  nitrite level, % of vehicle control: 22 ± 1%

## CC1(C)[C@@H]2CC[C@@]1(C)[C@@H](N1C(=O)c3c(F)ccc(F)c3C1=O)C2 [Compound 20, 4,7-Difluoro-2-((1R,2S,4R)-1,7,7-trimethylbicyclo[2.2.1]heptan-2-yl) isoindoline-1,3-dione]
RAW 264.7 cells; 1 μM, RAW 264.7 cells
  Cell Viability % Δ: 101 ± 3%
RAW 264.7 cells; 10 μM, RAW 264.7 cells
  Cell Viability % Δ: 98 ± 4%
RAW 264.7 cells; 30 μM, RAW 264.7 cells
  cell viability: 96%
  Cell Viability % Δ: 96 ± 6%
RAW 264.7 cells; RAW 264.7 cells, 1 to 30 μM
  cytotoxicity (in words): the smallest
TNF-α; [3]
  TNF-α % Δ: 100 ± 2%
TNF-α; [4]
  TNF-α % Δ: 98 ± 3%
TNF-α; [5]
  anti-TNF-α activity: 76%
  TNF-α % Δ: 76 ± 4%
[2]; [3]
  nitrite level, % of vehicle control: 90 ± 2%
[2]; [4]
  nitrite level, % of vehicle control: 78 ± 3%
[2]; [5]
  nitrite level, % of vehicle control: 39 ± 5%
[2]; Mus musculus, RAW264.7, 30 μM, LPS-challenged RAW 264.7 cells, read-out: nitrite inhibitory activity
  inhibition at 30 µM: 39%

## CC(C)Nc1ccc(F)c2c1C(=O)N(C1CCC(=O)NC1=O)C2=O (stereo not shown) [Compound 25, 2-(2,6-dioxopiperidin-3-yl)-4-fluoro-7-(isopropylamino) isoindoline-1,3-dione]
RAW 264.7 cells; LPS-activated RAW 264.7 cells
  Viability, % Change versus Control (± s.e.m.): 99.9 ± 0.4%
TNF-α; LPS-activated RAW 264.7 cells
  TNF-a, % Change versus Control (± s.e.m.): 87.1 ± 3.4%
[2]; LPS-activated RAW 264.7 cells
  Nitrite, % Change versus Control (± s.e.m.): 110.1 ± 4.4%

## CC(C)Nc1ccc(F)c2c1C(=O)N(C1CCC(=S)NC1=O)C2=O (stereo not shown) [Compound 27, 4-fluoro-7-(isopropylamino)-2-(2-oxo-6-thioxopiperidin-3-yl) isoindoline-1,3-dione]
RAW 264.7 cells; LPS-activated RAW 264.7 cells
  Viability, % Change versus Control (± s.e.m.): 112.3 ± 1.7%
TNF-α; LPS-activated RAW 264.7 cells
  TNF-a, % Change versus Control (± s.e.m.): 94.4 ± 2.8%
[2]; LPS-activated RAW 264.7 cells
  Nitrite, % Change versus Control (± s.e.m.): 74.8 ± 1.2%

## CC(C)Nc1ccc(F)c2c1C(=S)N(C1CCC(=S)NC1=O)C2=O (stereo not shown) [Compound 28, 7-fluoro-4-(isopropylamino)-2-(2-oxo-6-thioxopiperidin-3-yl)-3-thioxoisoindolin-1-one]
RAW 264.7 cells; LPS-activated RAW 264.7 cells
  Viability, % Change versus Control (± s.e.m.): 74.1 ± 4.2%
TNF-α; LPS-activated RAW 264.7 cells
  TNF-a, % Change versus Control (± s.e.m.): 74.7 ± 2.3%
[2]; LPS-activated RAW 264.7 cells
  Nitrite, % Change versus Control (± s.e.m.): 32.3 ± 1.1%

## Nc1cccc2c1C(=S)N(C1CCC(=S)NC1=O)C2=O (stereo not shown) [drawing 90]
RAW 264.7 cells; [6]
  Viability, % Change versus Control (± s.e.m.): 92 ± 1.8 (N.S.) %
TNF-α; [6]
  TNF-a, % Change versus Control (± s.e.m.): 113 ± 5.4 (N.S.) %
[2]; [6]
  Nitrite, % Change versus Control (± s.e.m.): 43 ± 1.0 (N.S.) $ %

## Nc1ccc(F)c2c1C(=O)N(C1CCC(=O)NC1=O)C2=O (stereo not shown) [drawing 91]
RAW 264.7 cells; [6]
  Viability, % Change versus Control (± s.e.m.): 102 ± 0.8 (N.S.) %
TNF-α; [6]
  TNF-a, % Change versus Control (± s.e.m.): 98 ± 1.5 (N.S.) %
[2]; [6]
  Nitrite, % Change versus Control (± s.e.m.): 86 ± 3.9 (N.S.) %

## Nc1ccc(F)c2c1C(=S)N(C1CCC(=S)NC1=O)C2=O (stereo not shown) [drawing 92]
RAW 264.7 cells; [6]
  Viability, % Change versus Control (± s.e.m.): 95 ± 3.0 (N.S.) %
TNF-α; [6]
  TNF-a, % Change versus Control (± s.e.m.): 109 ± 2.4 (N.S.) %
[2]; [6]
  Nitrite, % Change versus Control (± s.e.m.): 22 ± 1.7 ( **** ) %

## Nc1c(F)ccc2c1C(=O)N(C1CCC(=O)NC1=O)C2=O (stereo not shown) [drawing 93]
RAW 264.7 cells; [6]
  Viability, % Change versus Control (± s.e.m.): 90 ± 2.6 (N.S.) %
TNF-α; [6]
  TNF-a, % Change versus Control (± s.e.m.): 93 ± 4.1 (N.S.) %
[2]; [6]
  Nitrite, % Change versus Control (± s.e.m.): 100 ± 5.5 (N.S.) %

## Nc1c(F)ccc2c1C(=S)N(C1CCC(=S)NC1=O)C2=O (stereo not shown) [drawing 94]
RAW 264.7 cells; [6]
  Viability, % Change versus Control (± s.e.m.): 92 ± 1.6 (N.S.) %
TNF-α; [6]
  TNF-a, % Change versus Control (± s.e.m.): 114 ± 3.9 (N.S.) %
[2]; [6]
  Nitrite, % Change versus Control (± s.e.m.): 40 ± 1.2 (N.S.) $ %

## Nc1ccc(F)c2c1C(=S)N(C1CCC(=S)NC1=O)C2=O (stereo not shown) [drawing 96]
[1]; human liver microsomes, 0 min
  % Compound Remaining (mean), NADPH: 100%
  % Compound Remaining (mean), -NADPH: 100%
[1]; human liver microsomes, 30 min
  % Compound Remaining (mean), NADPH: 68%
  % Compound Remaining (mean), -NADPH: 71%
[1]; human liver microsomes, 60 min
  % Compound Remaining (mean), NADPH: 48%
  % Compound Remaining (mean), -NADPH: 53%

From patent US20260055061A1, “HALOPHTHALIMIDE COMPOUNDS AND METHODS OF USE AGAINST TBI, INFLAMMATORY DISORDER, AUTOIMMUNE DISORDER, NEURODEGENERATIVE DISEASE OR VIRAL INFECTION” (The United States of America, as represented by the …, priority 2022, published 2026)
